Tested on: female Wistar rats
Experiment: Hypovolemic shock produced by bleeding in anesthetized rats, intravenous bolus of the polypeptides
Assay type: in vivo, rat
Conditions: for MEAN ARTERIAL PRESSURE 15-30 min. After bleeding: mean ± S.E.
Procedure: Intact and adrenalectomized female Wistar rats (Nossan, Correzzano, Milano, Italy) weighing 250 to 300 g were used. Following anesthetization and heparinization a common carotid artery and an iliac vein were cannulated in rats. Arterial blood pressure was recorded by means of a pressure transducer (Statham P23 Db) connected to a polygraph (Battaglia-Rangoni, Bologna, Italy). […] Hypovolemic shock was produced by intermittently withdrawing blood from the venous catheter until mean arterial pressure fell to 10-25 mm Hg. […] Following bleeding and mean blood pressure stabilization in the range of 10-25 mm Hg, animals were given intravenous bolus of the polypeptides. Control animals were intravenously injected with the same volume of saline (0.1 ml/100 g).

Row | Substance | No. of deaths 120 min. after treatment (5 μg/kg i.v. after bleeding, 6 rats used (saline: 12 of 12 died)) | MEAN ARTERIAL PRESSURE 15-30 min. After bleeding (5 μg/kg i.v. after bleeding, 6 rats, before bleeding 71.17 ± 6.07, after bleeding 11.83 ± 0.79, P < 0.05 versus value after bleeding) | No. of deaths 120 min. after treatment (10 μg/kg i.v. after bleeding, 5 rats used (saline: 12 of 12 died)) | MEAN ARTERIAL PRESSURE 15-30 min. After bleeding (10 μg/kg i.v. after bleeding, 5 rats, before bleeding 68.40 ± 4.98, after bleeding 14.00 ± 1.82, P < 0.01 versus value after bleeding) | No. of deaths 120 min. after treatment (20 μg/kg i.v. after bleeding, 5 rats used (saline: 12 of 12 died)) | MEAN ARTERIAL PRESSURE 15-30 min. After bleeding (20 μg/kg i.v. after bleeding, 5 rats, before bleeding 72.00 ± 4.67, after bleeding 14.40 ± 0.87, P < 0.01 versus value after bleeding) | No. of deaths 120 min. after treatment (20 μg/kg i.v. after bleeding, 6 rats used (saline: 12 of 12 died)) | MEAN ARTERIAL PRESSURE 15-30 min. After bleeding (20 μg/kg i.v. after bleeding, 6 rats, before bleeding 75.17 ± 6.62, after bleeding 12.17 ± 1.11, P < 0.01 versus value after bleeding)
1 | CCK8 | 2 | 26.33 ± 7.05 mm Hg | 0 | 41.80 ± 3.79 mm Hg | 0 | 52.40 ± 2.73 mm Hg |  | 
2 | cerulein |  |  |  |  |  |  | 0 | 54.67 ± 4.29 mm Hg
